The values that follow come from paper PMC7297445, “Pharmacokinetic/Pharmacodynamic Determination and Preclinical Pharmacokinetics of the β-Lactamase Inhibitor ETX1317 and Its Orally Available Prodrug ETX0282” (ACS Infectious Diseases, 2020).

The nature of series [1]: Plasma protein binding. It is filed as in vitro ADME, rat. Here is the method:
(§1) Plasma protein binding was determined by rapid equilibrium dialysis. Plasma was freshly prepared from blood samples drawn in to EDTA (anticoagulant) containing tubes. Plasma was prepared using a table-top centrifuge and spun per instruction of the tube manufacturer and specifications (Beckton, Dickinson and Company, Franklin Lakes, NJ) and placed on ice prior to use.
(§2) Pooled plasma samples were centrifuged at 2000 rpm (approximately 1400g) for 15 min at 4 °C to remove debris. Approximately 90% of the clear supernatant fraction was transferred to a separate tube. Samples (500 μL) were then spiked with a 100× stock solution 100 μM, 0.5 mM, and 10 mM ETX1317 in DMSO respectively for 1, 5, and 100 μM final concentrations, transferred to the top of the filter chambers, and allowed to equilibrate for 15 min prior to centrifugation. The filtrate tubes were centrifuged at 14000g for 15 min at 4 °C. Next, 50 μL of the filtrate was precipitated with 300 μL of acetonitrile containing 250 ng/mL of carbutamide as the internal standard and the samples were analyzed by LC/MS/MS analysis.

A short description of series [2]: Plasma protein binding. The series is classed as in vitro ADME, mouse. Here is the method: as §1, §2
Series [3] in a line: Intravenous pharmacokinetics of ETX1317. As to conditions: i.v. 10 mg/kg. The series is classed as in vivo, rat. Here is the method:
Intravenous pharmacokinetics of ETX1317 investigated in jugular vein cannulated male Sprague–Dawley rats (Charles River Laboratories, n = 3/route) at a dose of 10 mg/kg formulated in 0.9% saline. Oral pharmacokinetics of ETX0282 was evaluated at a 10 mg/kg equivalent dose of ETX1317 formulated in 25:75 PEG 400:WFI. The pH of each formulation was verified to fall within a range of 4–7 and were confirmed to be in solution prior to dosing. Potency was verified by LC/MS/MS. Dose volumes were 5 and 10 mL/kg for ETX1317(i.v.) and ETX0282(p.o.), respectively for rats. In both dog (male, 3/route) and monkey (male, 3/route) studies, i.v. and p.o. doses were formulated on 25:75 PEG 400:WFI (pH ∼5) and administered at a dose of ∼1 mg/kg. Dose volume was 1 mL/kg for both routes in dogs and monkeys with the i.v. dose infused over 15 min. For oral doses, gavage tubes were flushed with 10 mL after administration of the dose. i.v. doses were sterile-filtered through 0.22 μm PVDF membrane prior to administration into the cephalic vein.
Blood samples to be processed for plasma using K2EDTA as an anticoagulant were taken at 0.08, 0.17, 0.25, 0.5, 1, 2, 4, and 8 h (i.v.) and 0.25, 0.5, 1, 2, 4, 8, and 24 h (p.o.) post dose in rats. Blood samples collected into 0.5 mL BD microtainers containing 1.0 mg K2EDTA were centrifuged in a microfuge for 10 min, plasma pipetted to 96 well cryo tubes, and stored at −80 °C prior to analysis.
Urine collection was collected directly into Nalgene bottles placed under metabolism cages with frozen ice packs to chill urine over the collection interval. Urine was collected 0–12, and 12–24 h post-dose. Following collection of each urine sample, the total urine weight was recorded and 3 mL aliquots were retained for LC/MS/MS analysis.
Non-compartmental analysis of time vs concentration data for ETX1317, ETX0282, CPD, and CPDP was completed using WinNonlin 8.1 (Pharsite Corporation, Mountain View CA). The maximum concentration (Cmax) was the highest observed concentration; Tmax was the earliest time at which Cmax occurred; and the elimination half-life was estimated as ln 2/kel, where kel is the elimination rate constant derived from the slope of the log concentration versus time profile. The area under the concentration–time curve from 0 h to the last time point (AUC0-tlast) was calculated by linear trapezoidal approximation. Clearance (CL) was estimated as Dose/AUC0-tlast and the steady state volume of distribution (Vd,ss) was estimated as CL* MRT, where MRT = AUMC/AUC (MRT = mean residence time and AUMC = area under the moment curve). Oral bioavailability (F) was determined from ETX1317 concentrations and normalizing doses to free acid equivalence, where F = AUCp.o.*(dosei.v.)/AUCi.v.*(dosep.o.).

Setting [4] is: male, Sprague-Dawley, rat, plasma, iv.

Read-outs that look alike come from different tables or passages of the source.

As usually defined, the AUC is the area under the concentration-time curve, a measure of exposure. A low value points to less exposure. What is called Cmax is the peak of the concentration-time curve. A word on the half-life: it is how long it takes for the measured level to halve. A word on the Vd: it is a proportionality between amount in the body and measured concentration, not a real space. Turning to `CC1=C[C@@H](C(N)=O)N2C[C@@H]1N(O[C@H](F)C(=O)O)C2=O` [ETX1317], the Proportion unbound in “Plasma protein binding [1]” (1 µM) came to 94%; in the series “Plasma protein binding [1]” (5 µM), 97%; in “Plasma protein binding [1]” (100 µM), 83%; in the series “Plasma protein binding [2]” (1 µM), 88%; in the series “Plasma protein binding [2]” (5 µM), 100%; in the series “Plasma protein binding [2]” (100 µM), 90%. Also, the fraction unbound at 15 min in “Plasma protein binding [2]” (mouse plasma, read-out: percent unbound) stood at 0.93. For the same compound, the CL in series [3] (10 mg/kg) is on record as 23.1 ± 1.1 mL/min/kg. Moreover, the clearance in series [3] (male, Sprague-Dawley, rat, plasma, iv, 10 mg/kg, read-out: CL) is 23 mL/min/kg; in series [3] (male, Sprague-Dawley, rat, urine and plasma, iv, 10 mg/kg, read-out: renal CL) it was 13.4 ± 0.3 mL/min/kg. This compound gave an AUC in series [3] (setting [4]) of 7190 ± 340 ng·h/mL. Also, the peak concentration (Cmax) in series [3] (setting [4]) was found to be 17500 ± 2000 ng/mL. In series [3] (setting [4]), this compound had a half-life of 24 ± 1.2 min. Further, the Vd in series [3] (male, Sprague-Dawley, rat, plasma, iv, read-out: Vd,ss) worked out at 0.7 ± 0.01 L/kg.
